The source of these data is article PMC11110755, “Structure-based virtual screening of unbiased and RNA-focused libraries to identify new ligands for the HCV IRES model system” (RSC Medicinal Chemistry, 2024).

SMILES strings stand for the structures. Converted amounts (≈) assume the structure as drawn. “Also recorded” adds a separate entry of the source. Like-named read-outs stand apart in the source and are kept apart here.

The test system of series [1] is HCV IRES. Details: method as in PMID 10866369. To be noted: previously reported, Fig. 1; cited from earlier work.
For series [2], the system named is HCV IRES. Also noted: method as in PMID 15380215. To be noted: previously reported, Fig. 1; read-out: IC50 (Luciferase reporter gene assay); cited from earlier work. In general terms: Reporter assays use an easily measured gene product as a stand-in for the process of interest.
The subject of series [3] is HCV IRES subdomain IIa. Also noted: method as in PMID 20564282. To be noted: previously reported, Fig. 1; read-out: EC50 (2-AP assay); cited from earlier work.
The subject of series [4] is HCV IRES subdomain IIa. As to the kind of experiment: FRET assay monitoring ligand-induced conformational change of Cy3/Cy5-labelled HCV IRES subdomain IIa. To be noted: 100 nM Cy3/Cy5-labelled RNA, 10 mM HEPES pH 7.0, 2 mM MgCl2, 2% DMSO; ≥ = lower limit. It counts as biochemical, hepatitis C virus. How it is done:
For the FRET assay, a two stranded HCV IRES subdomain IIa carrying a 5′-Cy3-label on one and 5′-Cy5-label on the other strand (Cy3-[…], Cy5-[…], Biomers.net GmbH) was used as described previously.[22,53] All samples containing labelled RNA were treated under light protection. FRET experiments were performed on a Tecan Spark 10 M plate reader (excitation/emission: 480/670 nm) using black half area 96 well microplates (Greiner Bio-One), based on a protocol by Zhou et al.[53] The 5′-Cy3- and 5′-Cy5-labelled single strands were annealed by heating to 75 °C in FRET buffer (10 mM HEPES pH 7.0, 2 mM MgCl2) and cooled down to room temperature for at least 20 min. The 5′-Cy3/Cy5-labelled RNA was diluted to 100 nM in FRET buffer and supplemented with compounds 8–28 in appropriate concentrations. Compounds 4 and 5 were used as positive controls. For the initial screening, compounds were added in final concentrations of 1000, 100, 10 and 0.001 μM (Fig. S4 ^†). If a concentration dependent reduction of the FRET signal (Cy5-emission) was observed, EC50-values were determined using ligand concentrations from 1 mM to 100 nM in 3.16-fold (semi-logarithmic) dilution series. For those compounds, the Cy3 emission was measured at 535 nm to confirm a conformational change dependent reduction in the Cy5 emission signal via Cy3 emission increase (Fig. S7 ^†). For each experiment, one DMSO negative control was carried out. The final DMSO concentration was always 2%. Excitation and emission spectra were recorded for the Cy3/Cy5-labelled RNA (100 nM) in FRET buffer to confirm excitation (Cy3) and emission (Cy5) wavelength as well as for each compound (1 μM) in FRET buffer to exclude any interference with the cyanine dyes. All measurements were performed at least as triplicates for screening and EC50-determination.
FRET experiments were analyzed using GraphPad Prism (version 8.0.1., GraphPad Software, Boston, Massachusetts USA, https://www.graphpad.com).

Series [5] concerns the target HCV IRES subdomain IIa. It counts as binding, hepatitis C virus. To be noted: 30 nM Cy5-labelled RNA, 10 mM HEPES pH 7.0, 2 mM MgCl2, 2% DMSO; ≥ = no saturation; n.b. no binding observed; read-out: MST KD. How it is done:
For the MST assay, the same sequence of the two stranded HCV IRES subdomain IIa as for the FRET assay was used. One strand was 5′-Cy5-labelled and the other strand was unmodified ([…], Cy5-[…], Biomers.net GmbH). All samples containing labelled RNA were treated under light protection. MST experiments were performed on a Monolith NT.115 from NanoTemper Technologies using standard uncoated capillaries. The strands were annealed by heating to 75 °C in MST buffer (10 mM HEPES pH 7.0, 2 mM MgCl2) and cooled down to room temperature for at least 20 min. The 5′-Cy5-labelled HCV IRES domain IIa RNA was diluted to 30 nM in MST buffer and supplemented with compounds 8–25 in appropriate concentrations. Compounds 4 and 5 were used as positive controls. For the initial screening, compounds were added to final concentrations of 1000 (or 316 if limited by solubility), 100, 10 and 0.001 μM (Fig. S5 ^†). If a concentration-dependent shift of thermophoresis was observed, KD-values were determined using concentrations ranging from 1 mM (if permitted by solubility, otherwise starting from 316 or 100 μM) to 0.01 μM in a 3.16-fold (semi-logarithmic) dilution series. For each experiment, one DMSO negative control was carried out. Final DMSO concentration was always 2%.
(§1) Off-target counter screens by MST were performed as described previously.[31,84] Briefly, the 5′-Cy5-labelled Tte preQ1-Riboswitch aptamer domain (Biomers.net GmbH) was heated to 75 °C for 5 min, cooled down to room temperature for at least 20 min and then diluted to 20 nM in MST buffer (50 mM Tris-HCl pH 7.5, 100 mM KCl, 25 mM MgCl2) and supplemented with compounds 4, 5, 8–13, 18, 21, 22 and 26 to final concentrations of 1000, 100, 10 and 0.001 μM. PreQ1 was used as a positive control. The 5′-Cy5-labelled B. angulatum SAM VI-Riboswitch aptamer domain (Eurofins Genomics GmbH) was heated to 75 °C for 5 min, cooled down to room temperature for at least 20 min and then diluted to 20 nM in MST buffer (50 mM Tris-HCl pH 7.5, 100 mM KCl, 25 mM MgCl2) and supplemented with compounds 5, 9 and 28 to final concentrations of 1000, 100, 10 and 0.001 μM. SAM was used as a positive control. For each experiment, one DMSO negative control was carried out. The final DMSO concentration was 2%. All measurements were performed at least as duplicates for pre-screening and triplicates for KD-determination. MST measurements were analyzed from signals after 18 s laser on-time using the MO.Affinity Analysis software (version 2.3) and exported for statistical analysis and plotting in GraphPad Prism (version 8.0.1., GraphPad Software, Boston, Massachusetts USA, https://www.graphpad.com).

The test system of series [6] is Tte preQ1-Riboswitch aptamer domain. The series can be described thus: MST off-target counter screen, preQ1-riboswitch aptamer domain. It counts as binding, Thermoanaerobacter tengcongensis. To be noted: 1000, 100, 10 and 0.001 μM. How it is done:
as §1
On the technique in general: The purpose of a counterscreen is to sort out artefacts and off-target activity.

Series [7] concerns SAM VI-Riboswitch aptamer domain. As to the kind of experiment: MST off-target counter screen, SAM VI-riboswitch aptamer domain. It counts as binding, B. angulatum. Conditions: 1000, 100, 10 and 0.001 μM. How it is done: as §1
Series [8] addresses HCV IRES subdomain IIa. Also noted: method as in PMID 16279767. To be noted: previously reported; read-out: KD (MS assay); cited from earlier work.
For series [9], the system named is HCV IRES subdomain IIa. Details: method as in PMID 16279767, PMID 24930829, PMID 27775338. To be noted: previously reported, Fig. 1; read-out: EC50 (FRET assay); cited from earlier work.
For series [10], the system named is cellular replicon. Details: method as in PMID 16279767. To be noted: cited from earlier work.

Take `Cc1cc2nc3ccc(N(C)C)cc3nc2cc1N` [Compound 1]: in series [1], the “IC50 (Fluci reporter gene assay)” value was 0.02 µg/mL (≈ 0.0793 µM).

As usually defined, the IC50 is the concentration that gives 50% inhibition. Turning to `Cc1nc(/N=C(\N)NCCc2ccccc2)nc(C)c1OCCCN(C)C` [Compound 2], in [2], the 50% inhibitory concentration (IC50) was 2.1 µM.

For orientation: EC50 means the concentration at which the effect is half-maximal. `CC(=O)c1ccc(C(=O)N[C@@H](CCCCN)C(=O)N2C[C@H](N)C[C@H](N)C2)cc1` [Compound 3]: the EC50 in [3] is 270 µM.

In general, Kd refers to the free concentration of one partner at which half of the binding sites on the other are occupied at equilibrium, for simple one-to-one binding. `CN(C)CCCn1c(N)nc2ccc3c(c21)CC(CN(C)C)CO3` (centres unmarked) [Compound 5]: the figures for the EC50 in [4] and in series [9] were 4.9 ± 2.6 µM and 3.4 µM, respectively. The results for the Kd in series [5] and in series [8] were 5.2 ± 0.8 µM and 0.86 µM, respectively. Moreover, in [6], the “preQ1-riboswitch binding / selectivity (MST-shift), in words” value is on record as “Weak preQ1-riboswitch binding; also recorded: binding to the preQ1-riboswitch at very high concentrations”. Also, the “SAM-VI-riboswitch binding (MST-shift), in words” value in [7] is “no binding; also recorded: no MST shift”. The “antiviral activity in cellular replicon assay, in words” value in series [10] is on record as “antiviral activity”. The “toxicity in cellular replicon assay, in words” value in [10] is “minimal toxicity”.
